Laboratory results from US20030064380A1, “Anergy-regulated molecules” (The Center For Blood Research, Inc., priority 2001, published 2003).

System: D5 Th1 T cell line
Assay: nucleic acid expression profile of D5 Th1 T cell line stimulated with 500 nM ionomycin, 1 μM CsA plus ionomycin or 20 nM PMA plus ionomycin; 19K chip, second replicate
Format: cell-based, murine
Design: expression level of Msa.15983.0_f_at / expression level of Msa.1669.0_f_at / expression level of Msa.18713.0_g_at / expression level of D86609_s_at / expression level of TC19211_at / expression level of TC21156_at / expression level of TC24045_at / expression level of TC30384_g_at / expression level of TC3225_at / expression level of TC38978_at / expression level of TC39080_at / expression level of TC17495_at: unit not given here
Description: D5 or primary T cells from NFAT1−/− or wild type DO11.10 transgenic mice were stimulated for 2, 6 or 16 hours with 500 nM ionomycin, 20 nM PMA plus 500 nM ionomycin, or 1 μM CsA plus 500 nM ionomycin. Total RNA was isolated with an RNeasy kit (QIAGEN). Ten μg of total RNA was quantitatively amplified and biotin-labeled as described (Byrne et al., (2000) “Preparation of mRNA for Expression Monitoring” Current Protocols in Molecular Biology (John Wiley & Sons, Inc.) pp. 22.22.21-22.22.13). […] Chips were washed, stained with SA-PE and read using an Affymetrix GeneChip® scanner and accompanying gene expression software. Labeled bacterial RNAs of known concentration were spiked into each chip hybridization mix to generate an internal standard curve, allowing normalization between chips and conversion of raw hybridization intensity values to mRNA frequency (mRNA molecules per million).
Nucleic acid expression profiles were obtained from a T cell line at multiple time points and in various T cell states. The D5 Th1 T cell line was stimulated in three different ways: 1) ionomycin alone (e.g., causing the regulatory factor NFAT to move from the cytoplasm to the nucleus); 2) ionomycin+PMA (e.g., causing both NFAT and the transcription factor AP-1 to enter the nucleus); 3) ionomycin +cyclosporin A (CsA) (e.g., preventing NFAT from entering the nucleus in response to ionomycin). […] Cells were stimulated for 0, 2, 6, and 16 hours. […] The experiment was done twice (i.e., with two replicates, Rep. 1 and Rep. 2). Nucleic acid expression at the 2, 6 and 16 hour timepoints was compared to nucleic acid expression at 0 hours.
The nucleic acid expression data was stored in a computer database. A database query was used to identify all nucleic acids that were deemed “increasing” or “decreasing” in response to ionomycin (relative to the 0 hour sample) in at least one timepoint in Rep. 1, and the nucleic acids were also deemed “increasing” or “decreasing” in response to ionomycin in Rep. 2.
To test the hypothesis that NFAT in the absence of AP-1 and NFKB induced a genetic program of anergy, genes induced in D5 T cells by ionomycin stimulation alone were evaluated (FIGS. 1, 2 and 6). Samples from D5 cells stimulated with ionomycin plus CsA, which blocks anergy induction, and ionomycin plus PMA, which pharmacologically mimic complete stimulation through the TCR and CD28 were included. RNA was prepared from unstimulated D5 T cells and from cells stimulated for 2, 6 or 16 h under these three conditions, and gene transcription profiles were evaluated using Affymetrix oligonucleotide arrays (FIG. 6A).

C[C@H](CCC(=O)O)C[C@H](C)C[C@H](C)C(=O)/C=C(\O)[C@H](C)C[C@H](C)C/C=C/[C@@H](C)[C@@H](O)[C@@H](C)[C@@H](O)C[C@@H]1CC[C@@](C)([C@H]2CC[C@@](C)([C@@H](C)O)O2)O1 [Ionomycin, ionomycin]
expression level of D86609_s_at (2 h): 34 | expression level of ET63436_at (2 h): 113 | expression level of MIP1-B_at (2 h): 110.5 | expression level of Msa.11439.0_s_at (2 h): 19 | expression level of Msa.15983.0_f_at (2 h): 44 | expression level of Msa.1669.0_f_at (2 h): 27 | expression level of Msa.18713.0_g_at (2 h): 83 | expression level of Msa.21745.0_s_at (2 h): 8 | expression level of TC3225_at (2 h): 34 | expression level of TC14671_g_at (2 h): 7 | expression level of TC16364_at (2 h): 4 | expression level of TC16828_at (2 h): 4 | expression level of TC17132_at (2 h): 121 | expression level of TC17495_at (2 h): 9 | expression level of TC17558_at (2 h): 41 | expression level of TC18221_at (2 h): 9 | expression level of TC19211_at (2 h): 48 | expression level of TC21156_at (2 h): 20 | expression level of TC23346_s_at (2 h): 5 | expression level of TC23450_s_at (2 h): 16 | expression level of TC24045_at (2 h): 15 | expression level of TC24067_at (2 h): 9 | expression level of TC25965_at (2 h): 42 | expression level of TC27326_g_at (2 h): 3 | expression level of TC29889_at (2 h): 11 | expression level of TC30384_g_at (2 h): 39 | expression level of TC30935_at (2 h): 93 | expression level of TC30992_s_at (2 h): 28 | expression level of TC31681_at (2 h): 56 | expression level of TC33206_at (2 h): 45 | expression level of TC33833_at (2 h): 23 | expression level of TC34186_at (2 h): 40 | expression level of TC36089_at (2 h): 156 | expression level of TC36583_at (2 h): 29 | expression level of TC37631_at (2 h): 18 | expression level of TC38094_at (2 h): 18 | expression level of TC38978_at (2 h): 6 | expression level of TC39012_at (2 h): 64 | expression level of TC39080_at (2 h): 14 | expression level of TC39762_at (2 h): 16 | expression level of TC40487_g_at (2 h): 16 | expression level of TC41014_at (2 h): 23 | expression level of U44731_s_at (2 h): 69 | expression level of X67914_s_at (2 h): 53 | expression level of Z31202_s_at (2 h): 10 | expression level of aa144045_s_at (2 h): 24 | expression level of aa174748_at (2 h): 31 | expression level of c81206_rc_at (2 h): 15 | expression level of k00083_s_at (2 h): 41 | expression level of x12531_s_at (2 h): 68 | expression level of D86609_s_at (6 h): 34 | expression level of ET63436_at (6 h): 60 | expression level of MIP1-B_at (6 h): 85.5 | expression level of Msa.11439.0_s_at (6 h): 22 | expression level of Msa.15983.0_f_at (6 h): 60 | expression level of Msa.1669.0_f_at (6 h): 32 | expression level of Msa.18713.0_g_at (6 h): 58 | expression level of Msa.21745.0_s_at (6 h): 12 | expression level of TC3225_at (6 h): 22 | expression level of TC14671_g_at (6 h): 15 | expression level of TC16364_at (6 h): 5 | expression level of TC16828_at (6 h): 17 | expression level of TC17132_at (6 h): 155 | expression level of TC17495_at (6 h): 12 | expression level of TC17558_at (6 h): 57 | expression level of TC18221_at (6 h): 17 | expression level of TC19211_at (6 h): 22 | expression level of TC21156_at (6 h): 25 | expression level of TC23346_s_at (6 h): 12 | expression level of TC23450_s_at (6 h): 21 | expression level of TC24045_at (6 h): 15 | expression level of TC24067_at (6 h): 19 | expression level of TC25965_at (6 h): 35 | expression level of TC27326_g_at (6 h): 4 | expression level of TC29889_at (6 h): 10 | expression level of TC30384_g_at (6 h): 29 | expression level of TC30935_at (6 h): 60 | expression level of TC30992_s_at (6 h): 9 | expression level of TC31681_at (6 h): 31 | expression level of TC33206_at (6 h): 19 | expression level of TC33833_at (6 h): 23 | expression level of TC34186_at (6 h): 38 | expression level of TC36089_at (6 h): 149 | expression level of TC36583_at (6 h): 26 | expression level of TC37631_at (6 h): 12 | expression level of TC38094_at (6 h): 10 | expression level of TC38978_at (6 h): 3 | expression level of TC39012_at (6 h): 42 | expression level of TC39080_at (6 h): 11 | expression level of TC39762_at (6 h): 15 | expression level of TC40487_g_at (6 h): 8 | expression level of TC41014_at (6 h): 18 | expression level of U44731_s_at (6 h): 54 | expression level of X67914_s_at (6 h): 39 | expression level of Z31202_s_at (6 h): 17 | expression level of aa144045_s_at (6 h): 17 | expression level of aa174748_at (6 h): 19 | expression level of c81206_rc_at (6 h): 13 | expression level of k00083_s_at (6 h): 45 | expression level of x12531_s_at (6 h): 49 | expression level of D86609_s_at (16 h): 45 | expression level of ET63436_at (16 h): 107 | expression level of MIP1-B_at (16 h): 97.5 | expression level of Msa.11439.0_s_at (16 h): 36 | expression level of Msa.15983.0_f_at (16 h): 56 | expression level of Msa.1669.0_f_at (16 h): 50 | expression level of Msa.18713.0_g_at (16 h): 49 | expression level of Msa.21745.0_s_at (16 h): 12 | expression level of TC3225_at (16 h): 37 | expression level of TC14671_g_at (16 h): 30 | expression level of TC16364_at (16 h): 10 | expression level of TC16828_at (16 h): 31 | expression level of TC17132_at (16 h): 126 | expression level of TC17495_at (16 h): 12 | expression level of TC17558_at (16 h): 98 | expression level of TC18221_at (16 h): 25 | expression level of TC19211_at (16 h): 22 | expression level of TC21156_at (16 h): 31 | expression level of TC23346_s_at (16 h): 13 | expression level of TC23450_s_at (16 h): 22 | expression level of TC24045_at (16 h): 25 | expression level of TC24067_at (16 h): 31 | expression level of TC25965_at (16 h): 50 | expression level of TC27326_g_at (16 h): 5 | expression level of TC29889_at (16 h): 13 | expression level of TC30384_g_at (16 h): 53 | expression level of TC30935_at (16 h): 86 | expression level of TC30992_s_at (16 h): 12 | expression level of TC31681_at (16 h): 22 | expression level of TC33206_at (16 h): 12 | expression level of TC33833_at (16 h): 23 | expression level of TC34186_at (16 h): 50 | expression level of TC36089_at (16 h): 165 | expression level of TC36583_at (16 h): 31 | expression level of TC37631_at (16 h): 29 | expression level of TC38094_at (16 h): 16 | expression level of TC38978_at (16 h): 8 | expression level of TC39012_at (16 h): 77 | expression level of TC39080_at (16 h): 24 | expression level of TC39762_at (16 h): 37 | expression level of TC40487_g_at (16 h): 13 | expression level of TC41014_at (16 h): 33 | expression level of U44731_s_at (16 h): 25 | expression level of X67914_s_at (16 h): 36 | expression level of Z31202_s_at (16 h): 45 | expression level of aa144045_s_at (16 h): 22 | expression level of aa174748_at (16 h): 21 | expression level of c81206_rc_at (16 h): 39 | expression level of k00083_s_at (16 h): 72 | expression level of x12531_s_at (16 h): 84
